# Patent US9926369B2, “Methods for treating hepatocellular cancer by administering an anti-Ang-2 antibody” (Regeneron Pharmaceuticals, Inc., priority 2009, dated 2018)
# Key:
# [1] = molecular target: Dimeric Monkey Ang-2FD-hFc; test: Cross-species SPR binding at 25° C. or 37° C., monkey Ang-2FD-hFc
# Protocol: Additional binding experiments were conducted using selected anti-Ang-2 antibodies at two different temperatures to further assess cross-species affinity. Each selected antibody or control construct was captured at a flow rate of 40 μL/min for 1 minute on a goat anti-human kappa polyclonal antibody surface created through direct chemical coupling to a BIACORE™ chip to form a captured antibody surface. Human, monkey and mouse Ang-2FD-Fc at a concentration of 25 nM or 0.78 nM was injected over the captured antibody surface at a flowrate of 60 μL/min for 3 minutes, and antigen-antibody dissociation was monitored in real time for 20 minutes at either 25° C. or 37° C.
# [2] = tested on: PC3 (Human Prostate Cancer Cell Line) tumors; test: PC3 mouse tumor model; assay type: in vivo, NCr nude mice
# Protocol: Briefly, 5×10^6 PC3 cells in 100 μl of growth factor-reduced Matrigel (BD Biosciences) were injected subcutaneously into the flanks of 6-8 week old male NCr nude mice (Taconic, Hudson, N.Y.). After tumor volumes reached an average of about 200 mm^3, mice were randomized into groups for treatment. […] Tumor volumes were measured twice per week over the course of the experiment and tumor weights were measured upon excision of tumors at the conclusion of the experiment. Averages (mean+/−standard deviation) of tumor weight and growth were calculated for each treatment group. Percent decrease of tumor weight and growth were calculated from comparison to Fc protein measurements.
# [3] = molecular target: T1, hAng-1-WT (Homo sapiens, UniProt Q15389); test: SPR binding to full-length wild-type human Ang-1 (preferential binding)
# T1 construct: Full-length wild-type human Ang-1 or Ang-2 at a concentration of 25 nM or 0.78 nM
# T1 sequence (Q15389 16-498): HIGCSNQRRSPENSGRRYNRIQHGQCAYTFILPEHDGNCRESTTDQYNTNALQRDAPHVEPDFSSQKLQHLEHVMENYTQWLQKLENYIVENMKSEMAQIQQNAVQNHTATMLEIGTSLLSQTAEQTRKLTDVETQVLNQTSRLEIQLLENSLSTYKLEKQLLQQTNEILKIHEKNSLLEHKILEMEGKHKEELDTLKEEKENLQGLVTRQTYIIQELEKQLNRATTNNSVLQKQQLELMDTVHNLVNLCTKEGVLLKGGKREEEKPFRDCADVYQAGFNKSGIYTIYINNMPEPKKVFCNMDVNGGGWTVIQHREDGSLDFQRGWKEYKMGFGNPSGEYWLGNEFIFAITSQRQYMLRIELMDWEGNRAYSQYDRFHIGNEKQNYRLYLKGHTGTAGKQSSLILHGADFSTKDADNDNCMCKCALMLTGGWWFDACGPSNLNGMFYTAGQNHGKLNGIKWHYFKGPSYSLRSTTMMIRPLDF
# Protocol: Binding experiments (plasmon resonance assays) were conducted to ascertain whether selected antibodies bound to both Ang-2 and Ang-1 or if they preferentially bound to Ang-2 only. Each selected antibody or control construct was captured at a flow rate of 40 μL/min for 1 minute on a goat anti-human IgG polyclonal antibody surface created through direct chemical coupling to a BIACORE™ chip to form a captured antibody surface. Full-length wild-type human Ang-1 or Ang-2 at a concentration of 25 nM or 0.78 nM were injected over the captured antibody surface at a flowrate of 60 μL/min for 3 minutes, and antigen-antibody dissociation was monitored in real time for 20 minutes at either 25° C. or 37° C.
# [4] = molecular target: T2, hAng-2FD-mFc I-434-M (Homo sapiens, UniProt O15123, I434M); test: Ang-2FD-mFc point mutant binding experiment (SPR), I-434-M; conditions: I-434-M mutant captured; antibody/peptibody at 100 nM; 25° C.
# T2 construct: made in house
# Description: To further characterize binding between hAng2 and anti-hAng2 mAbs of the invention, seven variant hAng2-FD-mFc proteins were generated, each containing a single point mutation. Amino acids selected for mutation were based on the difference in sequence between hAng-2 and hAng-1 in the region that interacts with hTie-2 (FIG. 1). In particular, amino acids within the fibrinogen-like domain (FD) of Ang-2 which are believed to interact with Tie-2 based on crystal structure analysis, but which differ from the corresponding amino acid in Ang-1, were individually mutated to the corresponding hAng-1 residue. The results of this example indicate the amino acid residues of hAng-2 with which the Ang-2 preferential binding antibodies interact.
# In this experiment, each of the seven hAng-2FD-mFc mutant proteins were captured (˜147-283 RU) on an anti-mouse-Fc surface created through direct chemical coupling to a BIACORE™ chip. Then each Ang-2 antibody (or peptibody, as the case may be) at 100 nM was injected over the captured mFc-tagged hAng-2FD protein surface at a flowrate of 50 μl/min for 180 sec, and the dissociation of variant hAng2-FD-mFc and antibody was monitored in real time for 20 min at 25° C.
# [5] = PC3, 2.5 mg/kg subcutaneous twice per week
# [6] = PC3, 10 mg/kg intraperitoneal twice per week, vs Fc protein
# [7] = PC3, 12.5 mg/kg subcutaneous twice per week
# [8] = PC3, 25 mg/kg subcutaneous twice per week
# Sequence of Dimeric Monkey Ang-2FD-hFc (as listed by the source): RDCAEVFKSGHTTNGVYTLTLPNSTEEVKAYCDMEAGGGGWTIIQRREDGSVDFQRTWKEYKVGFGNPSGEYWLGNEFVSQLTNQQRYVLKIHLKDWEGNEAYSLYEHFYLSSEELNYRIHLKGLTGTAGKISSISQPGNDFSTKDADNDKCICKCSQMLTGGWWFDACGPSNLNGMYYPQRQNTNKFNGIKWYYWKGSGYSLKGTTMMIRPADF
# T2 sequence (O15123 with tags, fused parts or gaps I434M): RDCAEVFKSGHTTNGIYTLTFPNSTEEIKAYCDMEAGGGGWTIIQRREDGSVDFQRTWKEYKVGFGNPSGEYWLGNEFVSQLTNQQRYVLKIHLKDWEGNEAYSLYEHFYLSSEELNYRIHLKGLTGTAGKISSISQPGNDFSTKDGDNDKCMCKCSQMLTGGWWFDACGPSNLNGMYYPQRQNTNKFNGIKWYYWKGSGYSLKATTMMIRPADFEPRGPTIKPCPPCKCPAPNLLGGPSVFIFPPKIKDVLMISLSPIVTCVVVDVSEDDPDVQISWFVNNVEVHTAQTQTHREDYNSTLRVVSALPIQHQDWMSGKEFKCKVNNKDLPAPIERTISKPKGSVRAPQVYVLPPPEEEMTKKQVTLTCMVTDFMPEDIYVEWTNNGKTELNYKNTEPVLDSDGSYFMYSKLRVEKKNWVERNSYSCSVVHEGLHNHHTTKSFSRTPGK
substance,measurement,setting,value
"H1H685P: human anti-Ang-2 antibody, HCVR/LCVR SEQ ID NOs 18/20; also referred to as mAb1 [Antibody H1H685P]",Kd,[1]; 25° C.,0.022 nM
same,Kd,[1]; 37° C.,0.0721 nM
same,% Decrease in Tumor Growth,[2]; [5],70%
same,Avg Tumor Growth,[2]; [5],308 ± 274 mm^3
same,Avg Tumor Weight,"[2]; PC3, 10 mg/kg intraperitoneal twice per week, approximately three weeks, mean ± SD",0.44 ± 0.12 g
same,Avg Tumor Growth,"[2]; PC3, 10 mg/kg intraperitoneal twice per week, mean ± SD",305 ± 143 mm^3
same,% Decrease in Tumor Growth,[2]; [6],40%
same,% Decrease in Tumor Weight,[2]; [6],33%
same,% Decrease in Tumor Growth,[2]; [7],47%
same,Avg Tumor Growth,[2]; [7],550 ± 150 mm^3
same,% Decrease in Tumor Growth,[2]; [8],60%
same,Avg Tumor Growth,[2]; [8],413 ± 208 mm^3
same,Anti-tumor activity in the PC3 mouse tumor model (in words),[2]; as compared to the control constructs,especially marked anti-tumor activity
same,"KD, binding to hAng-1-WT",[3]; 25° C.,No binding
same,"ka, binding to hAng-1-WT",[3]; 25° C.,No binding
same,"kd, binding to hAng-1-WT",[3]; 25° C.,No binding
same,"KD, binding to hAng-1-WT",[3]; 37° C.,No binding
same,"ka, binding to hAng-1-WT",[3]; 37° C.,No binding
same,"kd, binding to hAng-1-WT",[3]; 37° C.,No binding
same,Binding to Ang-1 (in words),[3]; SPR,does not bind to Ang-1
same,Kd,[4],0.0179 nM
same,RU,[4],235.95 RU
